# How the values were obtained:
# [1] = test system: Hepatocyte; experiment: Drug activation in rat hepatocytes by measuring intracellular NMPA levels at 100 uM after 1 hr; assay type: cell-based
# [2] = Stability assessed as half life in rat plasma; assay type: ADME, cell-free
# [3] = test system: Liver microsomes; experiment: Drug activation in NADPH-fortified human liver microsomes assessed as rate of NMPA formation; design: species or system Microsome
# [4] = test system: Liver microsomes; experiment: Drug activation in NADPH-fortified rat liver microsomes assessed as rate of NMPA formation; design: species or system Microsome
# [5] = Stability assessed as half life in Krebs bicarbonate buffer at 37degC; assay type: physicochemical
# [6] = test system: Nucleic Acid; experiment: Ratio of drug activation in NADPH-fortified human liver microsomes to NADPH-fortified rat liver microsomes assessed as rate of NMPA formation; design: species or system Microsome
# [7] = test system: Liver; experiment: Drug activation in NADPH-fortified rat liver without microsomes assessed as rate of NMPA formation; design: species or system Microsome
# [8] = test system: Liver microsomes; experiment: Drug activation in human liver microsomes assessed as rate of NMPA formation; design: species or system Microsome
Compound,Activity [1],half-life [2],also measured
O=P(O)(O)Cc1cccc2ccccc12,0 nmol/g,,
CC(C)C(=O)OCOP(=O)(Cc1cccc2ccccc12)OCOC(=O)C(C)C,85 nmol/g,0.00833 h,
CCOc1ccc(COP(=O)(Cc2cccc3ccccc23)OCc2ccc(OCC)c(Cl)c2)cc1Cl,54 nmol/g,> 2 h,
COc1ccc(COP(=O)(Cc2cccc3ccccc23)OCc2ccc(OC)c(C(C)=O)c2)cc1C(C)=O,0 nmol/g,,
CCOP(=O)(Cc1cccc2ccccc12)OCC,0 nmol/g,,
COc1ccc(COP(=O)(Cc2cccc3ccccc23)OCc2ccc(OC)c(C(F)(F)F)c2)cc1C(F)(F)F,46 nmol/g,> 2 h,
COc1c(Cl)cc(COP(=O)(Cc2cccc3ccccc23)OCc2cc(Cl)c(OC)c(Cl)c2)cc1Cl,0 nmol/g,,
COc1ccc(COP(=O)(Cc2cccc3ccccc23)OCc2ccc(OC)c(C#N)c2)cc1C#N,73 nmol/g,> 2 h,
COc1ccc(COP(=O)(Cc2cccc3ccccc23)OCc2ccc(OC)c(Br)c2)cc1Br,76 nmol/g,> 2 h,Activity [3]: 4.85 pmol/min/mg; Activity [4]: 2.76 pmol/min/mg; half-life [5]: > 2 h; Ratio [6]: 2; Activity [7]: 0 pmol/min/mg; Activity [8]: 0 pmol/min/mg
CCCOc1ccc(COP(=O)(Cc2cccc3ccccc23)OCc2ccc(OCCC)c(Cl)c2)cc1Cl,0 nmol/g,,
COc1c(Br)cc(COP(=O)(Cc2cccc3ccccc23)OCc2cc(Br)c(OC)c(Br)c2)cc1Br,0 nmol/g,,
COc1ccc(COP(=O)(Cc2cccc3ccccc23)OCc2ccc(OC)c([N+](=O)[O-])c2)cc1[N+](=O)[O-],60 nmol/g,> 2 h,
COc1ccc(COP(=O)(Cc2cccc3ccccc23)OCc2ccc(OC)c(F)c2)cc1F,125 nmol/g,> 2 h,Activity [3]: 5.23 pmol/min/mg; Activity [4]: 2.94 pmol/min/mg; half-life [5]: > 2 h; Ratio [6]: 2
COc1ccc(COP(=O)(Cc2cccc3ccccc23)OCc2ccc(OC)cc2)cc1,91 nmol/g,0.15 h,half-life [5]: 0.15 h
COc1ccc(COP(=O)(Cc2cccc3ccccc23)OCc2ccc(OC)c(Cl)c2)cc1Cl,130 nmol/g,> 2 h,Activity [3]: 4.52 pmol/min/mg; Activity [4]: 1.58 pmol/min/mg; half-life [5]: > 2 h; Ratio [6]: 2
COc1cc(COP(=O)(Cc2cccc3ccccc23)OCc2cc(Br)c(OC)c(Br)c2)cc(OC)c1OC (stereo not given),26 nmol/g,,

# Source: ChEMBL document CHEMBL1139953, “Bis[(para-methoxy)benzyl] phosphonate prodrugs with improved stability and enhanced cell penetration” (Bioorg Med Chem Lett, 2007)
